Relative viability data for eight cell lines are collected here from the supplement of paper PMC10307832.

Assay in all cases: relative viability (nuclei count vs DMSO), 5 days (fraction); higher = more cells survive
Compound in the experiment “KIN001-266 + Luminespib”: CCN1CCC(CC1)N2C=C(N=N2)CNC3=CC4=C(C(=CN=C4C(=C3)Cl)C#N)NC5=CC(=C(C=C5)F)Cl [KIN001-266] + CCNC(=O)c1noc(-c2cc(C(C)C)c(O)cc2O)c1-c1ccc(CN2CCOCC2)cc1 [Luminespib] (partner 0.01 µM)
The procedure, abridged: (§1)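 Cells from lung cancer lines were seeded into 1536-well plates and, one day later, dosed by pin tool. Treatments were either a single drug or a fixed dose of an anchor drug with five library-drug doses (not always all listed) in √10 steps. After 5 days, nuclei were stained in a one-step fixation (final 0.05% Triton X-100, 1% formaldehyde, 1 ug/ml Hoechst) and counted on 4× images, and relative viability is the treated-to-vehicle nuclei ratio, as the median of duplicate plates.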

Compound in the experiment “KIN001-266 + Foretinib”: CCN1CCC(CC1)N2C=C(N=N2)CNC3=CC4=C(C(=CN=C4C(=C3)Cl)C#N)NC5=CC(=C(C=C5)F)Cl [KIN001-266] + COc1cc2c(Oc3ccc(NC(=O)C4(C(=O)Nc5ccc(F)cc5)CC4)cc3F)ccnc2cc1OCCCN1CCOCC1 [Foretinib] (partner 0.25 µM)
The procedure, abridged:
as §1

Compound in the experiment “KIN001-266 + Dasatinib”: CCN1CCC(CC1)N2C=C(N=N2)CNC3=CC4=C(C(=CN=C4C(=C3)Cl)C#N)NC5=CC(=C(C=C5)F)Cl [KIN001-266] + Cc1nc(Nc2ncc(C(=O)Nc3c(C)cccc3Cl)s2)cc(N2CCN(CCO)CC2)n1 [Dasatinib] (partner 0.075 µM)
The procedure, abridged: as §1

Compound in the experiment “KIN001-266 + Decitabine”: CCN1CCC(CC1)N2C=C(N=N2)CNC3=CC4=C(C(=CN=C4C(=C3)Cl)C#N)NC5=CC(=C(C=C5)F)Cl [KIN001-266] + Nc1ncn([C@H]2C[C@H](O)[C@@H](CO)O2)c(=O)n1 [Decitabine] (partner 2 µM)
The procedure, abridged:
as §1

With COR-L 105, the relative viability turned out to be 0.616 in the experiment with KIN001-266 + Luminespib (first compound 0.08 µM); 0.802 with KIN001-266 + Luminespib (first compound 0.253 µM); 0.758 in the experiment with KIN001-266 + Luminespib (first compound 0.8 µM); 0.743 in the experiment with KIN001-266 + Luminespib (first compound 2.53 µM); 1.02 with KIN001-266 + Luminespib (first compound 8 µM); 0.795 with KIN001-266 + Foretinib (first compound 0.08 µM). Also, the relative viability was 1.09 in the experiment with KIN001-266 + Foretinib (first compound 0.253 µM); 0.92 with KIN001-266 + Foretinib (first compound 0.8 µM); 0.915 with KIN001-266 + Foretinib (first compound 2.53 µM); 0.758 with KIN001-266 + Foretinib (first compound 8 µM); 0.373 in the experiment with KIN001-266 + Dasatinib (first compound 0.08 µM); 0.419 with KIN001-266 + Dasatinib (first compound 0.253 µM). The relative viability was 0.343 with KIN001-266 + Dasatinib (first compound 0.8 µM); 0.377 with KIN001-266 + Dasatinib (first compound 2.53 µM); 0.326 in the experiment with KIN001-266 + Dasatinib (first compound 8 µM); 0.584 in the experiment with KIN001-266 + Decitabine (first compound 0.08 µM); 0.661 in the experiment with KIN001-266 + Decitabine (first compound 0.253 µM); 0.641 with KIN001-266 + Decitabine (first compound 0.8 µM). Also, the results for the relative viability with KIN001-266 + Decitabine (first compound 2.53 µM) and with KIN001-266 + Decitabine (first compound 8 µM) were 0.725 and 0.677, respectively.
Turning to Calu-6, the relative viability is 0.921 in the experiment with KIN001-266 + Foretinib (first compound 0.08 µM); 0.861 with KIN001-266 + Foretinib (first compound 0.253 µM); 0.925 with KIN001-266 + Foretinib (first compound 0.8 µM); 0.917 in the experiment with KIN001-266 + Foretinib (first compound 2.53 µM); 0.609 with KIN001-266 + Foretinib (first compound 8 µM).
Regarding ChaGo-K-1, the relative viability with KIN001-266 + Luminespib (first compound 0.08 µM) was 0.689; in the experiment with KIN001-266 + Luminespib (first compound 0.253 µM) it was 0.741; in the experiment with KIN001-266 + Luminespib (first compound 0.8 µM) it was 0.385; in the experiment with KIN001-266 + Luminespib (first compound 2.53 µM), 0.57; with KIN001-266 + Luminespib (first compound 8 µM), 0.327; with KIN001-266 + Foretinib (first compound 0.08 µM), 0.904. Besides, the relative viability was found to be 0.989 with KIN001-266 + Foretinib (first compound 0.253 µM); 0.756 in the experiment with KIN001-266 + Foretinib (first compound 0.8 µM); 0.793 in the experiment with KIN001-266 + Foretinib (first compound 2.53 µM); 0.871 with KIN001-266 + Foretinib (first compound 8 µM); 0.581 with KIN001-266 + Dasatinib (first compound 0.08 µM); 0.58 with KIN001-266 + Dasatinib (first compound 0.253 µM). Besides, the relative viability in the experiment with KIN001-266 + Dasatinib (first compound 0.8 µM) was 0.528; with KIN001-266 + Dasatinib (first compound 2.53 µM), 0.512; with KIN001-266 + Dasatinib (first compound 8 µM), 0.533; in the experiment with KIN001-266 + Decitabine (first compound 0.08 µM) it was 0.502; in the experiment with KIN001-266 + Decitabine (first compound 0.253 µM) it was 0.517; with KIN001-266 + Decitabine (first compound 0.8 µM) it was 0.508. In addition, the figures for the relative viability with KIN001-266 + Decitabine (first compound 2.53 µM) and in the experiment with KIN001-266 + Decitabine (first compound 8 µM) were 0.506 and 0.38, respectively.
With EBC-1, the relative viability in the experiment with KIN001-266 + Foretinib (first compound 0.08 µM) was 0.0963; with KIN001-266 + Foretinib (first compound 0.253 µM), 0.1; with KIN001-266 + Foretinib (first compound 0.8 µM), 0.105; with KIN001-266 + Foretinib (first compound 2.53 µM) it was 0.128; with KIN001-266 + Foretinib (first compound 8 µM), 0.117.
Regarding EKVX, the relative viability with KIN001-266 + Luminespib (first compound 0.08 µM) came to 0.86; in the experiment with KIN001-266 + Luminespib (first compound 0.253 µM), 0.869; with KIN001-266 + Luminespib (first compound 0.8 µM) it was 0.735; in the experiment with KIN001-266 + Luminespib (first compound 2.53 µM), 0.89; in the experiment with KIN001-266 + Luminespib (first compound 8 µM), 0.986; with KIN001-266 + Foretinib (first compound 0.08 µM), 0.858. For the same cell line, the relative viability turned out to be 0.744 in the experiment with KIN001-266 + Foretinib (first compound 0.253 µM); 0.642 with KIN001-266 + Foretinib (first compound 0.8 µM); 0.781 in the experiment with KIN001-266 + Foretinib (first compound 2.53 µM); 0.624 in the experiment with KIN001-266 + Foretinib (first compound 8 µM); 0.468 with KIN001-266 + Dasatinib (first compound 0.08 µM); 0.519 in the experiment with KIN001-266 + Dasatinib (first compound 0.253 µM). In addition, the relative viability in the experiment with KIN001-266 + Dasatinib (first compound 0.8 µM) came to 0.549; with KIN001-266 + Dasatinib (first compound 2.53 µM), 0.533; in the experiment with KIN001-266 + Dasatinib (first compound 8 µM) it was 0.406; with KIN001-266 + Decitabine (first compound 0.08 µM), 0.364; with KIN001-266 + Decitabine (first compound 0.253 µM), 0.422; with KIN001-266 + Decitabine (first compound 0.8 µM) it was 0.368. Further, the figures for the relative viability in the experiment with KIN001-266 + Decitabine (first compound 2.53 µM) and with KIN001-266 + Decitabine (first compound 8 µM) were 0.364 and 0.358, respectively.
As for EMC-BAC-2, the relative viability was 1.27 in the experiment with KIN001-266 + Luminespib (first compound 0.08 µM); 1.25 with KIN001-266 + Luminespib (first compound 0.253 µM); 1.11 in the experiment with KIN001-266 + Luminespib (first compound 0.8 µM); 1.18 in the experiment with KIN001-266 + Luminespib (first compound 2.53 µM); 1.25 with KIN001-266 + Luminespib (first compound 8 µM); 1.13 in the experiment with KIN001-266 + Foretinib (first compound 0.08 µM). Besides, the relative viability is 1.09 with KIN001-266 + Foretinib (first compound 0.253 µM); 0.972 in the experiment with KIN001-266 + Foretinib (first compound 0.8 µM); 1.03 with KIN001-266 + Foretinib (first compound 2.53 µM); 1 with KIN001-266 + Foretinib (first compound 8 µM); 0.352 in the experiment with KIN001-266 + Dasatinib (first compound 0.08 µM); 0.392 in the experiment with KIN001-266 + Dasatinib (first compound 0.253 µM). Besides, the relative viability with KIN001-266 + Dasatinib (first compound 0.8 µM) was determined as 0.319; in the experiment with KIN001-266 + Dasatinib (first compound 2.53 µM), 0.373; in the experiment with KIN001-266 + Dasatinib (first compound 8 µM), 0.331; in the experiment with KIN001-266 + Decitabine (first compound 0.08 µM), 1.04; with KIN001-266 + Decitabine (first compound 0.253 µM), 1.04; with KIN001-266 + Decitabine (first compound 0.8 µM), 0.965. Besides, the relative viability is 0.984 in the experiment with KIN001-266 + Decitabine (first compound 2.53 µM) and 0.988 with KIN001-266 + Decitabine (first compound 8 µM).
As to EPLC-272H, the relative viability with KIN001-266 + Luminespib (first compound 0.08 µM) came to 0.253; with KIN001-266 + Luminespib (first compound 0.253 µM), 0.268; with KIN001-266 + Luminespib (first compound 0.8 µM), 0.323; with KIN001-266 + Luminespib (first compound 2.53 µM) it was 0.181; with KIN001-266 + Luminespib (first compound 8 µM) it was 0.176; with KIN001-266 + Foretinib (first compound 0.08 µM), 0.777. Besides, the relative viability worked out at 0.763 with KIN001-266 + Foretinib (first compound 0.253 µM); 0.728 in the experiment with KIN001-266 + Foretinib (first compound 0.8 µM); 0.636 in the experiment with KIN001-266 + Foretinib (first compound 2.53 µM); 0.208 with KIN001-266 + Foretinib (first compound 8 µM); 0.467 in the experiment with KIN001-266 + Dasatinib (first compound 0.08 µM); 0.324 with KIN001-266 + Dasatinib (first compound 0.253 µM). In addition, the relative viability with KIN001-266 + Dasatinib (first compound 0.8 µM) was determined as 0.333; with KIN001-266 + Dasatinib (first compound 2.53 µM), 0.421; with KIN001-266 + Dasatinib (first compound 8 µM), 0.234; with KIN001-266 + Decitabine (first compound 0.08 µM), 0.382; with KIN001-266 + Decitabine (first compound 0.253 µM), 0.404; with KIN001-266 + Decitabine (first compound 0.8 µM), 0.338. In addition, the relative viability with KIN001-266 + Decitabine (first compound 2.53 µM) was 0.344; in the experiment with KIN001-266 + Decitabine (first compound 8 µM), 0.319.
For H3255, the relative viability with KIN001-266 + Luminespib (first compound 0.08 µM) was 0.909; in the experiment with KIN001-266 + Luminespib (first compound 0.253 µM), 0.945; with KIN001-266 + Luminespib (first compound 0.8 µM), 0.935; in the experiment with KIN001-266 + Luminespib (first compound 2.53 µM) it was 0.847; with KIN001-266 + Luminespib (first compound 8 µM), 0.912; with KIN001-266 + Foretinib (first compound 0.08 µM), 0.801. In addition, the relative viability with KIN001-266 + Foretinib (first compound 0.253 µM) is 0.862; with KIN001-266 + Foretinib (first compound 0.8 µM), 0.797; with KIN001-266 + Foretinib (first compound 2.53 µM), 0.957; with KIN001-266 + Foretinib (first compound 8 µM), 0.725; in the experiment with KIN001-266 + Dasatinib (first compound 0.08 µM) it was 0.359; with KIN001-266 + Dasatinib (first compound 0.253 µM), 0.334. Besides, the relative viability in the experiment with KIN001-266 + Dasatinib (first compound 0.8 µM) was determined as 0.288; in the experiment with KIN001-266 + Dasatinib (first compound 2.53 µM), 0.404; with KIN001-266 + Dasatinib (first compound 8 µM), 0.346; in the experiment with KIN001-266 + Decitabine (first compound 0.08 µM), 0.632; with KIN001-266 + Decitabine (first compound 0.253 µM), 0.557; in the experiment with KIN001-266 + Decitabine (first compound 0.8 µM), 0.587. Moreover, the relative viability with KIN001-266 + Decitabine (first compound 2.53 µM) turned out to be 0.618; with KIN001-266 + Decitabine (first compound 8 µM), 0.713.
